The values that follow come from patent US10975068B2, “6-aminopyridin-3-yl thiazoles as modulators of RORγT” (Janssen Pharmaceutica NV, priority 2016, dated 2021).

Like-named read-outs stand apart in the source and are kept apart here.

The target in one test is full-length human RORγt (Homo sapiens (Human), UniProt P51449). Put plainly: RORγt (full-length human) reporter assay, Conditions B or C. The settings on record: for RORγt (FL) Reporter Assay B or C, % inhibition (value marked ***): marked ***: footnote not given; for RORγt (FL) Reporter Assay B or C, % inhibition (value marked *): marked *: footnote not given; for inhibition at 3 µM: at 3 μM compound concentration. It is filed as cell-based. Summed up:
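Readout is dual luciferase: firefly (GAL4-driven) normalized to DMSO-only and saturating-reference controls, then to CMV-Renilla. Full-length human RORγt fused to GAL4-DBD was transiently expressed in HEK293T; compound exposure ran overnight (16-20 h) starting 4-6 h after transfection, final FBS 1.3%, DMSO 0.1%.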
Background: Reporter assays use an easily measured gene product as a stand-in for the process of interest.

The target in test [1] is human RORγt ligand binding domain (RORγt LBD) (Homo sapiens (Human), UniProt P51449). Description: RORγt ThermoFluor® assay (thermal shift binding). The method in brief: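 Binding was inferred from thermal stabilisation (ΔTm) of the E. coli-expressed RORγt LBD (0.065 mg/mL), monitored by 1,8-ANS (60 μM) emission at 500 nm during a 1 °C/min ramp. Buffer was Hepes 100 mM pH 7.0 with NaCl, GSH and Tween-20.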
(In general: DSF heats the sample and reads unfolding from a dye or from intrinsic fluorescence.)

Setting [2] is: Conditions B or C, read-out: RORγt (FL) Reporter Assay B or C, IC50.
Setting [3] is: read-out: ThermoFluor® Assay, Kd.
[4] abbreviates: read-out: RORγt (FL) Reporter Assay B or C, IC50.
Where [5] appears, read: read-out: RORγt (FL) Reporter Assay B or C, % inhibition.

human RORγt ligand binding domain (RORγt LBD), sequence (P51449 other isoform, or with tags, fused parts or gaps): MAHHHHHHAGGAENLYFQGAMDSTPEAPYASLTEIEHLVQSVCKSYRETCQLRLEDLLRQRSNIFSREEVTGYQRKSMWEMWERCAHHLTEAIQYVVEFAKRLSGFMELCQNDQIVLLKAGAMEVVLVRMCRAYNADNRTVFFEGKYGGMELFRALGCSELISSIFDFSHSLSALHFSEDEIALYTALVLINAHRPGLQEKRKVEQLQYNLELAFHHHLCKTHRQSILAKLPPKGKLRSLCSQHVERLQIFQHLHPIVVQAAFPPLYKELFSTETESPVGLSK
full-length human RORγt, sequence (P51449 other isoform, or with tags, fused parts or gaps): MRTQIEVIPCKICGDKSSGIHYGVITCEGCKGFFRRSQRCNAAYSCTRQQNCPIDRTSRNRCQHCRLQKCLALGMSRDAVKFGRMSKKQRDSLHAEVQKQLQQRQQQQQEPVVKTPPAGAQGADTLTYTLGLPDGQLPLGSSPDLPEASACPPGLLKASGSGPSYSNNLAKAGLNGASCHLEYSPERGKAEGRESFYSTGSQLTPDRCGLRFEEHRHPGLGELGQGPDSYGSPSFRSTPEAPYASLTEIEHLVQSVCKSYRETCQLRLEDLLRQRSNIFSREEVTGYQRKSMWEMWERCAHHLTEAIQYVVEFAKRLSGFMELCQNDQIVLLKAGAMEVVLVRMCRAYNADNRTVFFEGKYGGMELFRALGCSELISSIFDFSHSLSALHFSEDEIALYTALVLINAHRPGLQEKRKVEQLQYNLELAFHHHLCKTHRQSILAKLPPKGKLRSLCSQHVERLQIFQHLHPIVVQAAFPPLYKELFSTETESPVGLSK

As a reminder, the IC50 is the concentration that gives 50% inhibition. The term Kd denotes the free concentration of one partner at which half of the binding sites on the other are occupied at equilibrium, for simple one-to-one binding. Turning to `CC[C@H](Nc1cc(C(F)(F)F)c(-c2sc(C(=O)NCC(C)(C)O)nc2C(=O)N2C3CCC2CC3)cn1)C1CC1` (stereo in doubt) [Example 130], the “RORγt (FL) Reporter Assay B or C, % inhibition (value marked ***)” value on full-length human RORγt (Conditions B or C) was 98*** %. At full-length human RORγt (RORγt (FL) Reporter Assay B or C, IC50 (μM), Conditions B or C), this molecule showed an IC50 of 0.03 µM. In addition, the Kd in test [1] (ThermoFluor® Assay, Kd (μM)) is 0.0016 µM.
As to `C[C@H](Nc1cc(C(F)F)c(-c2sc(C(=O)N[C@@H]3C[C@H]3O)nc2C(=O)N2CCC[C@@H]2C)cn1)C(F)(F)F` (single isomer, unassigned) [Example 157, 5-(4-(Difluoromethyl)-6-(((S)-1,1,1-trifluoropropan-2-yl)amino)pyridin-3-yl)-N-((1R*,2R*)-2-hydroxycyclopropyl)-4-((S)-2-methylpyrrolidine-1-carbonyl)thiazole-2-carboxamide], the “RORγt (FL) Reporter Assay B or C, % inhibition (value marked *)” value (“RORγt … % inhibition (value marked *)” below) at full-length human RORγt (Conditions B or C) is listed as 89* %. For the same molecule, the IC50 on full-length human RORγt (setting [2]) was found to be 0.19 µM. The dissociation constant (Kd) in test [1] (setting [3]) amounted to 0.032 µM.
Regarding `CC[C@H](Nc1cc(C(F)F)c(-c2sc(C(=O)N[C@H](C)C(C)(C)O)nc2C(=O)N2CC(F)(F)C[C@@H]2C)cn1)C(F)(F)F` [Example 245, 4-[(2S)-4,4-Difluoro-2-methyl-pyrrolidine-1-carbonyl]-5-[4-(difluoromethyl)-6-[[(1S)-1-(trifluoromethyl)propyl]amino]-3-pyridyl]-N-[(1R)-2-hydroxy-1,2-dimethyl-propyl]thiazole-2-carboxamide], the “RORγt … % inhibition (value marked *)” value at full-length human RORγt (Conditions B or C) is given as 98* %. Moreover, the IC50 on full-length human RORγt (setting [2]) is 0.026 µM. Besides, the Kd in test [1] (setting [3]) stood at 0.0016 µM.
The matching figures for `C[C@H]1CCCN1C(=O)c1nc(C(=O)NCC2(O)CCC2)sc1-c1cnc(NC2CCCC2)cc1C(F)F` [Example 71, (S)-5-(6-(Cyclopentylamino)-4-(difluoromethyl)pyridin-3-yl)-N-((1-hydroxycyclobutyl)methyl)-4-(2-methylpyrrolidine-1-carbonyl)thiazole-2-carboxamide]: 111* %, 0.013 µM and 0.0037 µM.
As usually defined, the inhibition is the drop in the measured response relative to a control, in per cent. `C[C@H](Nc1cc(C(F)F)c(-c2sc(C(=O)N[C@@H]3CC[C@@H](O)C3)nc2C(=O)N2C3CCC2CC3)cn1)C(F)(F)F` [Example 438, 4-((1s,4s)-7-Azabicyclo[2.2.1]heptane-7-carbonyl)-5-[4-(difluoromethyl)-6-[[(1S)-2,2,2-trifluoro-1-methyl-ethyl]amino]-3-pyridyl]-N-[(1R,3R)-3-hydroxycyclopentyl]thiazole-2-carboxamide]: the inhibition at 1 µM on full-length human RORγt (at 1 μM compound concentration, read-out: RORγt (FL) Reporter Assay B or C, % inhibition) came to 99%. The IC50 on full-length human RORγt (setting [4]) was 0.083 µM. The Kd in test [1] (setting [3]) is 0.004 µM.
As for `C[C@H]1CCCN1C(=O)c1nc(C(=O)NCC(C)(C)O)sc1-c1cnc(NCC2(C(F)(F)F)CCC2)cc1C(F)(F)F` [Example 117, (S)—N-(2-Hydroxy-2-methylpropyl)-4-(2-methylpyrrolidine-1-carbonyl)-5-(4-(trifluoromethyl)-6-(((1-(trifluoromethyl)cyclobutyl)methyl)amino)pyridin-3-yl)thiazole-2-carboxamide], the “RORγt … % inhibition (value marked *)” value on full-length human RORγt (Conditions B or C) is given as 107* %. Also, at full-length human RORγt (setting [2]), the IC50 was determined as 0.0033 µM. Also, the Kd in test [1] (setting [3]) came to 0.00078 µM.
On the same counts, the results for `C[C@H]1CCCN1C(=O)c1nc(C(=O)NCC(C)(C)O)sc1-c1cnc(NC(C)(C)C2CC2)cc1C(F)(F)F` [Example 56, (S)-5-(6-((2-Cyclopropylpropan-2-yl)amino)-4-(trifluoromethyl)pyridin-3-yl)-N-(2-hydroxy-2-methylpropyl)-4-(2-methylpyrrolidine-1-carbonyl)thiazole-2-carboxamide] are 106* %, 0.0036 µM and 0.00034 µM.
On the same counts, the results for `C[C@H](Nc1cc(C(F)(F)F)c(-c2sc(C(=O)N[C@@H]3CCC[C@@H]3O)nc2C(=O)N2CC(F)(F)C[C@@H]2C)cn1)C1CC1` [Example 201, 5-(6-(((S)-1-Cyclopropylethyl)amino)-4-(trifluoromethyl)pyridine-3-yl)-4-((S)-4,4-difluoro-2-methylpyrrolidine-1-carbonyl)-N-((1R,2S)-2-hydroxycyclopentyl)thiazole-2-carboxamide] are 102* %, 0.016 µM and 0.00061 µM.
As for `C[C@H]1CCCN1C(=O)c1nc(C(=O)N[C@@H]2CCC[C@H]2O)sc1-c1cnc(NC(C)(C)C)cc1C(F)F` [Example 397, 5-[6-(tert-Butylamino)-4-(difluoromethyl)-3-pyridyl]-N-[(1R,2R)-2-hydroxycyclopentyl]-4-[(2S)-2-methylpyrrolidine-1-carbonyl]thiazole-2-carboxamide], the inhibition at 3 µM on full-length human RORγt (setting [5]) was determined as 118%. Besides, the IC50 on full-length human RORγt (setting [4]) was 0.009 µM. Moreover, the Kd in test [1] (setting [3]) is 0.0012 µM.
Regarding `C[C@H]1CCCN1C(=O)c1nc(C(=O)NCC(C)(C)O)sc1-c1cnc(NC2(C(F)(F)F)CCC2)cc1C(F)(F)F` [Example 104, (S)—N-(2-Hydroxy-2-methylpropyl)-4-(2-methylpyrrolidine-1-carbonyl)-5-(4-(trifluoromethyl)-6-((1-(trifluoromethyl)cyclobutyl)amino)pyridin-3-yl)thiazole-2-carboxamide], the “RORγt … % inhibition (value marked *)” value on full-length human RORγt (Conditions B or C) is given as 110* %. Also, the IC50 on full-length human RORγt (setting [2]) is 0.025 µM. The Kd in test [1] (setting [3]) turned out to be 0.00064 µM.
`C[C@H](Nc1cc(C(F)F)c(-c2sc(C(=O)NC3CCC3O)nc2C(=O)N2CCC[C@@H]2C)cn1)C(F)(F)F` (stereo partly drawn) [Example 386, 5-(4-(Difluoromethyl)-6-(((S)-1,1,1-trifluoropropan-2-yl)amino)pyridin-3-yl)-N-(trans-2-hydroxycyclobutyl)-4-((S)-2-methylpyrrolidine-1-carbonyl)thiazole-2-carboxamide]: the inhibition at 3 µM on full-length human RORγt (setting [5]) worked out at 99%. The IC50 at full-length human RORγt (setting [4]) worked out at 0.072 µM. In addition, the Kd in test [1] (setting [3]) worked out at 0.0094 µM.
The matching figures for `C[C@H]1CCCN1C(=O)c1nc(C(=O)NCc2n[nH]c(=O)[nH]2)sc1-c1cnc(NC(C)(C)C)cc1C(F)(F)F` [Example 302, (S)-5-(6-(tert-Butylamino)-4-(trifluoromethyl)pyridin-3-yl)-4-(2-methylpyrrolidine-1-carbonyl)-N-((5-oxo-4,5-dihydro-1H-1,2,4-triazol-3-yl)methyl)thiazole-2-carboxamide]: 86%, greater than 3 µM and 0.049 µM.
On to `C[C@H](NC(=O)c1nc(C(=O)N2CCC[C@@H]2C)c(-c2cnc(NC(C)(C)C)cc2C(F)(F)F)s1)[C@@H](C)O` (relative stereo) [Example 238, 5-(6-(tert-Butylamino)-4-(trifluoromethyl)pyridin-3-yl)-N-((2S*,3R*)-3-hydroxybutan-2-yl)-4-((S)-2-methylpyrrolidine-1-carbonyl)thiazole-2-carboxamide], for which the “RORγt … % inhibition (value marked *)” value on full-length human RORγt (Conditions B or C) is on record as 92* %. Also, on full-length human RORγt (setting [2]), the IC50 was 0.029 µM. In addition, the Kd in test [1] (setting [3]) was 0.0055 µM.
On the same counts, the results for `CC(C)(O)CNC(=O)c1nc(C(=O)N2C3CCC2CC3)c(-c2cnc(NCC3(C(F)(F)F)CCC3)cc2C(F)(F)F)s1` [Example 119, 4-((1s,4s)-7-Azabicyclo[2.2.1]heptane-7-carbonyl)-N-(2-hydroxy-2-methylpropyl)-5-(4-(trifluoromethyl)-6-(((1-(trifluoromethyl)cyclobutyl)methyl)amino)pyridin-3-yl)thiazole-2-carboxamide] are 108* %, 0.017 µM and 0.0015 µM.
Regarding `CC[C@@H](Nc1cc(C(F)F)c(-c2sc(C(=O)N[C@H]3COC[C@@H]3O)nc2C(=O)N2CCC[C@@H]2C)cn1)C(F)(F)F` [Example 207, 5-(4-(Difluoromethyl)-6-(((1R)-1-(trifluoromethyl)propyl)amino)-3-pyridyl)-N-((3S,4R)-4-hydroxytetrahydrofuran-3-yl)-4-((2S)-2-methylpyrrolidine-1-carbonyl)thiazole-2-carboxamide], on full-length human RORγt (Conditions B or C), the “RORγt (FL) Reporter Assay B or C, % inhibition (value marked ***)” value was 103*** %. The IC50 on full-length human RORγt (setting [2]) amounted to 0.019 µM. Also, the Kd in test [1] (setting [3]) is 0.0026 µM.
As for `C[C@H](Nc1cc(C(F)F)c(-c2sc(C(=O)NC3CCOCC3)nc2C(=O)N2CC(F)(F)C[C@@H]2C)cn1)C(F)(F)F` [Example 448, 4-[(2S)-4,4-Difluoro-2-methyl-pyrrolidine-1-carbonyl]-5-[4-(difluoromethyl)-6-[[(1S)-2,2,2-trifluoro-1-methyl-ethyl]amino]-3-pyridyl]-N-tetrahydropyran-4-yl-thiazole-2-carboxamide], the inhibition at 3 µM at full-length human RORγt (setting [5]) worked out at 99%. Also, at full-length human RORγt (setting [4]), the IC50 is 0.028 µM. In addition, the Kd in test [1] (setting [3]) amounted to 0.0008 µM.
For the molecule `CC[C@H](Nc1cc(C(F)F)c(-c2sc(C(=O)N[C@H]3CC[C@H](O)C3)nc2C(=O)N2CCC[C@@H]2C)cn1)C(F)(F)F` [Example 398, 5-[4-(Difluoromethyl)-6-[[(1S)-1-(trifluoromethyl)propyl]amino]-3-pyridyl]-N-[(1S,3S)-3-hydroxycyclopentyl]-4-[(2S)-2-methylpyrrolidine-1-carbonyl]thiazole-2-carboxamide], the inhibition at 3 µM on full-length human RORγt (setting [5]) stood at 109%. Besides, the IC50 on full-length human RORγt (setting [4]) was 0.039 µM. For the same molecule, the Kd in test [1] (setting [3]) came out at 0.0015 µM.
